In US20220081412A1, “QUINOLINYL-PYRAZINE-CARBOXAMIDE COMPOUNDS AND USES THEREOF” (The Regents of the University of Michigan, priority 2018, published 2022):
Where two headings read alike, the source gives them in different places.

Test system: MIA PaCa-2 cells
Assay: Bru-seq analysis for nascent RNA synthesis (log2FC of genes, GSEA gene sets)
Format: cell-based, human
[1] = ACEVEDO_LIVER_CANCER_WITH_H3K27ME3_UP, C2, downregulated, 4 h
[2] = ACTWSNACTNY_UNKNOWN, TFBT, upregulated, 4 h
[3] = AP1_Q4_01, TFBT, upregulated, 4 h
[4] = BACH1_01, TFBT, upregulated, 4 h
[5] = BACH2_01, TFBT, upregulated, 4 h
[6] = BEGUM_TARGETS_OF_PAX3_FOXO1_FUSION_UP, C2, downregulated, 4 h
[7] = CCCNNNNNNAAGWT_UNKNOWN, TFBT, upregulated, 4 h
[8] = DACOSTA_UV_RESPONSE_VIA_ERCC3_COMMON_DN, C2, downregulated, 4 h
[9] = DACOSTA_UV_RESPONSE_VIA_ERCC3_XPCS_DN, C2, downregulated, 4 h
[10] = DAZARD_UV_RESPONSE_CLUSTER_G6, C2, downregulated, 4 h
[11] = DE_YY1_TARGETS_DN, C2, downregulated, 4 h
[12] = DOANE_BREAST_CANCER_CLASSES_DN, C2, downregulated, 4 h
[13] = EVI1_05, TFBT, upregulated, 4 h
[14] = GABRIELY_MIR21_TARGETS, C2, downregulated, 4 h
[15] = GATGKMRGCG_UNKNOWN, TFBT, upregulated, 4 h
[16] = GCCNNNWTAAR_UNKNOWN, TFBT, upregulated, 4 h
[17] = GGAANCGGAANY_UNKNOWN, TFBT, upregulated, 4 h
[18] = GGCNRNWCTTYS_UNKNOWN, TFBT, upregulated, 4 h
[19] = GGGYGTGNY_UNKNOWN, TFBT, upregulated, 4 h
[20] = GO_ALCOHOL_BIOSYNTHETIC_PROCESS, upregulated, 4 h
[21] = GO_ALCOHOL_METABOLIC_PROCESS, upregulated, 4 h
[22] = GO_CELLULAR_RESPONSE_TO_TOPOLOGICALLY_INCORRECT_PROTEIN, upregulated, 4 h
[23] = GO_CHROMATIN_ASSEMBLY_OR_DISASSEMBLY, upregulated, 4 h
[24] = GO_CHROMATIN_SILENCING_AT_RDNA, upregulated, 4 h
[25] = GO_CYTOSOLIC_LARGE_RIBOSOMAL_SUBUNIT, upregulated, 4 h
[26] = GO_CYTOSOLIC_RIBOSOME, upregulated, 4 h
[27] = GO_DNA_PACKAGING, upregulated, 4 h
[28] = GO_DNA_PACKAGING_COMPLEX, upregulated, 4 h
[29] = GO_HEXOSE_METABOLIC_PROCESS, upregulated, 4 h
[30] = GO_INTRINSIC_COMPONENT_OF_ENDOPLASMIC_RETICULUM_MEMBRANE, upregulated, 4 h
[31] = GO_IRE1_MEDIATED_UNFOLDED_PROTEIN_RESPONSE, upregulated, 4 h
[32] = GO_NEGATIVE_REGULATION_OF_RESPONSE_TO_OXIDATIVE_STRESS, upregulated, 4 h

With `Cc1cc(NC(=O)c2cnc(N3CCNCC3)cn2)c2ncccc2c1` [J28, N-(6-methylquinolin-8-yl)-5-(piperazin-1-yl)pyrazine-2-carboxamide] the ES was 0.474, the “KEGG gene sets SYSTEMIC_LUPUS_ERYTHEMATOSUS and LYSOSOME” value was “upregulation” and the NES was 1.626. The “cholesterol biosynthesis pathway (curated gene sets)” value was “enrichment”, the “expression of genes like INSIG1, DHCR7, MVK and FASN” value was “Overexpression” and the “synthesis of PCYT2, DOLK and HIST1H3B RNAs” value was “upregulated in a dose-dependent manner”. For the same molecule, the “expression of ZNF816, IFT80, CACNG8 and GPR135” value (4 h) was “significant decrease”, the “Cell Cycle, Mitotic pathway” value (4 h of treatment) was “upregulated” and the log2FC (AC005614.2, downregulated noncoding gene, 4 h) was −1.01. The log2FC (AC005726.2, downregulated protein-coding gene, 4 h) was −0.99, the log2FC (AC006141.1, downregulated noncoding gene, 4 h) was −1.18 and the log2FC (AC007038.2, downregulated noncoding gene, 4 h) was −1.08. It also gave a log2FC (AC007099.1, downregulated noncoding gene, 4 h) of −1.04, a log2FC (AC007390.2, downregulated noncoding gene, 4 h) of −1.54 and a log2FC (AC007619.1, downregulated noncoding gene, 4 h) of −1.30. The log2FC (AC009690.1, downregulated protein-coding gene, 4 h) was −0.83, the log2FC (AC016949.1, downregulated noncoding gene, 4 h) was −1.18 and the log2FC (AC022335.1, downregulated protein-coding gene, 4 h) was −0.86. The log2FC (AC022415.1, downregulated noncoding gene, 4 h) was −1.20, the log2FC (AC040934.1, downregulated noncoding gene, 4 h) was −0.97 and the log2FC (AC046130.2, downregulated noncoding gene, 4 h) was −1.16. The log2FC (AC091152.2, downregulated noncoding gene, 4 h) was −1.18, the log2FC (AC135983.2, downregulated noncoding gene, 4 h) was −1.16 and the log2FC (AC244131.2, downregulated noncoding gene, 4 h) was −1.22. The ES [1] was −0.444, the NES [1] was −1.897 and the ES [2] was 0.432. It also gave an NES [2] of 1.640, a log2FC (ADNP-AS1, downregulated noncoding gene, 4 h) of −1.07 and a log2FC (AKAP5, downregulated protein-coding gene, 4 h) of −0.90. For the same molecule, the log2FC (AL596247.1, downregulated noncoding gene, 4 h) was −2.37, the ES [3] was 0.371 and the NES [3] was 1.550. For the same molecule, the log2FC (AP001992.1, downregulated noncoding gene, 4 h) was −1.36, the ES [4] was 0.419 and the NES [4] was 1.762. It also gave an ES [5] of 0.390, an NES [5] of 1.654 and an ES [6] of −0.621. The NES [6] was −2.034, the log2FC (CACNG8, downregulated protein-coding gene, 4 h) was −1.10 and the ES [7] was 0.409. It also gave an NES [7] of 1.550, a log2FC (CCDC190, downregulated protein-coding gene, 4 h) of −0.91 and a log2FC (CD274, downregulated protein-coding gene, 4 h) of −0.90. The log2FC (CHML, downregulated protein-coding gene, 4 h) was −0.94, the log2FC (CLEC2D, downregulated protein-coding gene, 4 h) was −0.84 and the ES [8] was −0.448. For the same molecule, the NES [8] was −2.492, the ES [9] was −0.520 and the NES [9] was −2.258. For the same molecule, the ES [10] was −0.434, the NES [10] was −2.065 and the ES [11] was −0.471. It also gave an NES [11] of −2.072, an ES [12] of −0.562 and an NES [12] of −1.907. It also gave an ES [13] of 0.421, an NES [13] of 1.596 and a log2FC (FERMT1, downregulated protein-coding gene, 4 h) of −0.88. For the same molecule, the log2FC (FP671120.1, downregulated noncoding gene, 4 h) was −2.35, the ES [14] was −0.470 and the NES [14] was −2.457. It also gave an ES [15] of 0.462, an NES [15] of 1.697 and an ES [16] of 0.442. For the same molecule, the NES [16] was 1.702, the log2FC (GCLM, downregulated protein-coding gene, 4 h) was −0.85 and the log2FC (GCNA, downregulated protein-coding gene, 4 h) was −0.89. The ES [17] was 0.421, the NES [17] was 1.695 and the ES [18] was 0.424. For the same molecule, the NES [18] was 1.583, the ES [19] was 0.361 and the NES [19] was 1.708. The ES [20] was 0.573, the NES [20] was 2.162 and the ES [21] was 0.457. For the same molecule, the NES [21] was 2.022, the ES [22] was 0.504 and the NES [22] was 2.013. The ES [23] was 0.470, the NES [23] was 1.952 and the ES [24] was 0.713. For the same molecule, the NES [24] was 2.078, the ES [25] was 0.536 and the NES [25] was 1.982. For the same molecule, the ES [26] was 0.516, the NES [26] was 2.082 and the ES [27] was 0.468. The NES [27] was 1.976, the ES [28] was 0.727 and the NES [28] was 2.600. It also gave an ES [29] of 0.500, an NES [29] of 1.992 and an ES [30] of 0.508. It also gave an NES [30] of 2.000, an ES [31] of 0.556 and an NES [31] of 2.001. It also gave an ES [32] of 0.743 and an NES [32] of 2.162.
